Measured values as given in patent US10947260B2, “Phosphinolactone derivatives and pharmaceutical uses thereof” (INSTITUT NATIONAL DE LA SANTE ET DE LA RECHERCHE MEDICALE …, priority 2016, dated 2021).

Key:
[1] = system: APPSwe mice; experiment: Spontaneous alternation in Y-maze, transgenic APPSwe mice, chronic treatment; assay type: in vivo; details: for alternation deficit of APPSwe animals: 1 mg/kg/d
Description: FIG. 8: Spontaneous alternation (a, b) and total number of arm entries (c, d) of APPSwe mice given compound 3b, in the Y-maze, after treatment of one month (a, c) and 2 months (b, d). The animals were given compound 3b (0.7 or 2 mg/kg IP) 3 times per week for 1 or 2 months. N=6-15 per group. ANOVA: F(5.49)=3.84, p<0.01 at (a); F(5.54)=1.54, p>0.05 at (b); F<1 at (c) et (d). *p<0.05, **p<0.01 compared with group (WT+V); #p<0.05 compared with group (APPSwe+V); Dunnett test at (a, b).
FIG. 10: Spontaneous alternation (a, b) and number of arm entries (c, d) for APPSwe mice treated with compound 3c, in the Y-maze, after treatment for 1 month (a, c) or 2 months (b, d). The animals were given compound 3c (1 mg/kg IP) 3 times per week for 1 or 2 months. N=10-13 per group. ANOVA: F(3.45)=3.61, p<0.05 at (a); F(3.38)=6.33, p<0.01 at (b); F<1 at (c) and (d). *p<0.05, ***p<0.001 compared with group WT/V; #p<0.05 compared with group APPSwe/V; Dunnett test at (a, b).
(§1) The animals were tested for spontaneous alternation performance in a Y-maze, an index of spatial working memory. The Y-maze was in grey PVC. Each arm was 40 cm long, 13 cm high, 3 cm wide at the base and 10 cm wide in the upper part, and converging at an equal angle. Each mouse was placed at one end of an arm and was able to move freely through the maze during an 8-min session. The series of arm entries, including any returns in the same arm were visually analysed. Alternation is defined as being consecutive entries in three different arms. The maximum number of alternations is therefore the total number of arm entries less two, and alternation percentage is calculated as (actual alternations/maximum possible alternations)×100. The parameters comprise the alternation percentage (memory index) and the total number of arm entries (exploratory index).
TG2576 mice, over-expressing the human amyloid precursor protein carrying the Swedish double mutation APPSwe, develop the pathology towards the age of 8-10 months and up until 15-17 months, age at which 95% of the animals show behavioural, biochemical and morphological signs of the disease. Compound 3b was administered under chronic treatment at doses of 0.7 mg/kg/d IP and then 2 mg/kg/d IP. The effect of compound 3c, at a dose of 1 mg/kg/j IP, was also documented.

[2] = system: mice treated with Aβ25-35; experiment: Spontaneous alternation in the Y-maze, Aβ25-35 amyloid toxicity model; assay type: in vivo; details: for active dose (neuroprotective effects): non-transgenic AD model, ICV Aβ25-35 in mice
Description: Male mice (RjOrl:SWISS) from Janvier laboratories (Le Genest-Saint-Isle, France), aged 7-9 weeks and weighing 32±2 g were used for this study. The animals were grouped in plastic cages with free access to the […] and water, in a regulated environment (23±1° C., humidity 40-60%, 12 h light/dark cycle).
The compounds were solubilized in physiological saline solution (0.9% NaCl) or in dimethylsulfoxide (DMSO) 10% in the saline solution and administered via intraperitoneal route (IP) in a volume of 100 μl per 20 g body weight.
The amyloid-β[25-35] peptide (Aβ25-35) and control peptide (Sc.Aβ) were obtained from Genepep (Saint-Jean-de-Vedas, France). They were solubilized in injectable distilled water at a concentration of 3 mg/ml and stored at −20° C. Before injection, the peptides were incubated at 37° C. for 4 days, which enabled the Aβ25-35 peptide but not the Sc.Aβ, to form oligomers. They were administered via intracerebroventricular route (ICV). The animals were anesthetized by inhaling 2.5% isoflurane (TEM) and were given 3 μl of peptide solution via direct ICV route (Haley and McCormick's method). For injection a 10 μl Hamilton micro-syringe was used at a flow rate of 1 μl/min.
as §1
[…] After one week, the animals were tested for behavioural performance, then sacrificed and the brain dissected for biochemical analyses.
On Day 7, after the injections of 3b and amyloid peptide, the mice were tested for their ability to alternate in the Y-maze, a spatial working memory test. […] The mice were then tested for passive avoidance response, a long-term non-spatial memory test. with training on Day 8 and recall on Day 9 after the injections (FIG. 1c).

SMILES	alternation in the WT animals ([1]; lowest dose (0.7 mg/kg/d), 2 months)	spontaneous alternation performance of wild-type control animals ([1]; treatment for one month, 0.7 or 2 mg/kg IP)	active dose (neuroprotective effects) ([2]; IP)	minimum active dose ([2]; dose-dependent experiments, Aβ25-35 model, IP)	alternation deficit of APPSwe animals ([1]; 1 month)	alternation deficit of APPSwe animals ([1]; 2 months)	spontaneous alternation deficit induced by Aβ25-35 (Y-maze) ([2]; 0.3 mg/kg IP (range tested 0.03-0.7; only this dose efficient), Day 7)
CC1(C)COP(=O)(c2cccc(Cl)c2)C(C)(C)N1 (racemic) [Compound 3b, (±)-2-(3-Chlorophenyl)-2-oxo-3,3,5,5-tetramethyl-[1,4,2]-oxazaphosphinane]	appears to impact alternation	does not affect the performance	0.7 mg/kg	0.7 mg/kg			
CC1(C)COP(=O)(c2ccc(Cl)cc2)C(C)(C)N1 (racemic) [Compound 3c, (±)-2-(4-Chlorophenyl)-2-oxo-3,3,5,5-tetramethyl-[1,4,2]-oxazaphosphinane]			0.3 mg/kg		attenuated	significantly blocked	significantly prevents spontaneous alternation deficit
